Results published in patent publication US20220281860A1, “COMPOUNDS AND METHODS OF TREATING RNA-MEDIATED DISEASES” (Arrakis Therapeutics, Inc., priority 2016, published 2022).
Counter-ions that a name gives are not always drawn.

What was measured:
[1] = tested on: RNA3WJ_0.0.0_5IB_3FAM (3WJ_0.0.0_5IB_3FAM) RNA three way junction; test: Thermal shift binding assay; details: for Melt. Temp. with cmpd / Shift melt. Temp.: RNA sequence 3WJ_0.0.0_5IB_FAM; for Melt. Temp. with cmpd: melting temperature in presence of compound; for Shift melt. Temp.: melting temperature with cmpd minus without cmpd
Excerpt: (§1) Purpose: Test binding of compounds for RNA three way junction (for example, a construct of 38 nt). Thermal shift assay based on established fluorescence quenching assay utilizing FAM as fluorescence tag and Iowa Black as quencher. Tags were attached at the 3′ and 5′ end, respectively. Stable formation of 3WJ upon compound binding would lead to quenching of the FAM fluorescence due to close proximity of the Iowa Black tag. Thermal unfolding leads to increase of fluorescence emission. Assay readout: FAM (465-510 nm) Thermal Shift.
(§2) Assay sample buffer used: 10 mM CacoK pH 7.2, 30 mM NaCl. Buffer preparation in Dnase/Rnase Free distilled water (Gibco Life Technologies).
(§3) Tool compounds provided as dry powder are prepared as 50 mM stock solution in 100% d6-DMSO. Stock solutions of 50 mM concentration in d6-DMSO are stored at RT.
(§4) Sample plate: Roche, Light Cycler480 Multiwell Plate96, white, REF 04729692001. (Dilution plate: Greiner REF 781101, PS-Microplate, 384 well, clear). Thermal Shift device: Roche, Light Cycler480.
(§5) Daily fresh (10 ml): 1 ml 100 mM CacoK pH 7.2 and 0.3 ml 1 M NaCl filled up to 10 ml with Dnase/Rnase Free distilled water.
(§6) Dilute the RNA 1:10 (final 10 μM) in Assay Buffer.
(§7) Heat up the diluted RNA up to 90° C. for 5 min (sealed Eppendorf Tube).
(§8) Cool down the RNA probe slowly to RT.
(§9) Dilute the compounds to 800 μM in DMSO (Assay: 8 μM).
(§10) 78.4 μL Assay Buffer are pipetted into Greiner REF 781101, PS-Microplate, 384 (each well needed).
(§11) Add 0.8 μL of the RNA-Solution ([…]).
(§12) Add 0.8 μL Compound-Solution ([…]).
(§13) Final concentrations in the sample: 1 μM RNA, 8 μM compound, 1% DMSO
(§14) Pipet 20 μL Sample Solution into Roche, Light Cycler480 Multiwell Plate96, white, REF 04729692001.
(§15) When sample transfer is finished, seal the plate with a clear topseal (part of REF 04729692001).
(§16) Centrifuge the plate with a table-top device to spin down the samples.
(§17) Measure the 96 plate with the LightCycler480 (Channel: 480/510 nm; Temperature: 41-91° C.).
(§18) Analyse measurement-data with the MeltingCurveGenotyping Mode.
(§19) Settings: Acquisition mode: continuous; Ramp rate: 0.1 C.°/sec; Acquisition: 6/C.° Melt Curve Genotyping for All Samples
(§20) Melting curves analysis show melting temperature (Tm) of ˜51° C. Range of RNA concentrations was tested and assay window was determined (conc. range of 0.5-1 μM yields best results). The choice of buffer also affected the Tm. RNA constructs were tested under different buffer conditions (especially in presence of salt) in the thermal shift assay. […] CacoK with 30 mM salt at 1 μM RNA conc. was used to assess compound effects on 3WJ stability. […] These conditions were used for screening test compounds.

[2] = tested on: 3WJ_0.0.0_5IB_3FAM construct; test: Fluorescence quenching binding assay; details: at conc. >5 μM, FIG. 107
Protocol: This assay will be used to test binding of compounds for RNA three way junction (such as a 38 nt construct). This is a fluorescence quenching assay utilizing FAM as fluorescence tag and Iowa Black as quencher. Tags are attached at the 3′ and 5′ end, respectively. Stable formation of MW upon compound binding would lead to quenching of the FAM fluorescence due to close proximity of the Iowa Black tag. Assay readout: FAM (485-520 nm) Fluorescence Intensity.
as §2, §3
Sample plate: Greiner cat #784076, black, 384 (Dilution plate: Greiner REF 781101, PS-Microplate, 384 well, clear). Fluorescence Intensity device: Envision 1040285
Daily fresh (10 ml): 1 ml 100 mM CacoK pH 7.2 and 0.3 ml 1 M NaCl filled up to 10 ml with Dnase/Rnase Free distilled water
as §6
Heat up the diluted RNA up to 90° C. for 5 min (sealed Eppendorf Tube). […]
Calibration of the expected fluorescence signal at various RNA concentrations in either CacoK or NaPO4 buffers was performed first. Experiments in buffers containing salt show distinct fluorescence quenching behavior. […]

[3] = tested on: RNA3WJ_1.0.0_5IB_3FAM (cis 3WJ with one unpaired nucleotide); test: Thermal shift binding assay; details: RNA3WJ_1.0.0_5IB 3FAM; RNA:ligand ratios 1:1, 1:3
Excerpt: as §1, §2, §3, §4, §5, §6, §7, §8, §9, §10, §11, §12, §13, §14, §15, §16, §17, §18, §19, §20
Compounds Ark0000013 and Ark0000014 were also tested in the thermal shift assay against three RNA 3WJ constructs, A) RNA3WJ_1.0.0_5IB_3FAM (cis 3WJ with one unpaired nucleotide); B) Split3WJ.1_up_5IB+Split3WJ.1_down_3FAM (trans 3WJ as 1:1 mix); and C) Split3WJ.2_up_5IB+Split3WJ.2_down_3FAM (trans 3WJ as 1:1 mix).

RNA3WJ_3.0.0_5IB_3FAM = test: Thermal shift binding assay; details: RNA:ligand ratios 1:1, 1:3
Excerpt: as §1, §2, §3, §4, §5, §6, §7, §8, §9, §10, §11
Add 0.8 μL Compound-Solution ([…]). […]
as §14, §15, §16, §17, §18, §19, §20

[4] = tested on: RNA3WJ_0.0.0_5IB_3FAM (3WJ_0.0.0_5IB_3FAM) RNA three way junction; test: Thermal shift binding assay; details: RNA:ligand ratios 1:1, 1:3, raw and normalized data
[5] = RNA3WJ_0.0.0_5IB_3FAM, 1 μM RNA, 8 μM compound, 1% DMSO, 10 mM CacoK pH 7.2, 30 mM NaCl

Molecule: 4-((2S,4S)-4-azido-2-(methyl(12-methyl-13-oxo-15-(2,7,15-tris(8-aminooctanamido)-9,10-[1,2]benzenoanthracen-9(10H)-yl)-3,6,9-trioxa-12-azapentadecyl)carbamoyl)pyrrolidine-1-carbonyl)benzenesulfonyl fluoride [ARK000032]
- Temp. Shift [° C.] [1, 5]: +15.0 °C
- Melt. Temp. with cmpd [1]: 75.1 °C
- Shift melt. Temp. [1]: +15.0 °C

Molecule: N,N′,N″-(9-(1-((2S,4S)-4-azido-1-(3-(4-(fluorosulfonyl)benzoyl)pyrrolidin-2-yl)-2,11-dimethyl-1,12-dioxo-5,8-dioxa-2,11-diazatetradecan-14-yl)-9,10-dihydro-9,10-[1,2]benzenoanthracene-2,7,15-triyl)tris(azanediyl))tris(8-aminooctanamide) [ARK000031]
- Temp. Shift [° C.] [1, 5]: +24.1 °C
- Melt. Temp. with cmpd [1]: 84.1 °C
- Shift melt. Temp. [1]: +24.1 °C

Molecule: C#CCCCC(=O)NC[C@H]1O[C@H](O[C@H]2[C@H](O)[C@@H](O[C@H]3O[C@H](CO)[C@@H](O)[C@H](N)[C@H]3O)[C@H](N)C[C@@H]2N)[C@H](O)[C@@H](O)[C@@H]1O [Ark000008]
- Effect on melting temperature (in words) ([1]; 3WJ_0.0.0_5IB_3FAM RNA construct, FIG. 110): very small effect

Molecule: [N-]=[N+]=NC[C@H]1O[C@H](O[C@@H]2[C@@H](O)[C@H](O[C@H]3O[C@H](CN)[C@@H](O)[C@H](O)[C@H]3O)[C@@H](N)C[C@H]2N)[C@H](O)[C@@H](N)[C@@H]1O [Ark000007, 6″-Azido-kanamycin A hydrochloride salt]
- Melting temp [° C.] + cmpd [1, 5]: 65.6 °C
- Temp. Shift [° C.] [1, 5]: ~5 °C
- Concentration dependent influence on the fluorescence signal (quenching effect) [2]: increase of quenching effect

Molecule: CN(CCOCCOCCN(C)C(=O)[C@@H]1C[C@H](N=[N+]=[N-])CN1C(=O)CCc1ccc(S(=O)(=O)F)cc1)C(=O)CCC12c3cc(NC(=O)CCCCCCCN)ccc3C(c3ccc(NC(=O)CCCCCCCN)cc31)c1ccc(NC(=O)CCCCCCCN)cc12 [ARK000028]
- Melt. Temp. with cmpd [1]: 82.3 °C
- Shift melt. Temp. [1]: +22.0 °C

Molecule: CN(CCCN)CCCNC(=O)c1ccccc1 [Ark000039]
- Effect in the melting curves (in words) [3]: lack of effect
- Effect in the melting curves (in words) (RNA3WJ_3.0.0_5IB_3FAM): lack of effect
- Effect in the melting curves (in words) [4]: no significant effect

Molecule: CC(C)(C)OC(=O)NCCCC[C@@H](NC(=O)OC(C)(C)C)C(=O)Nc1ccc2c(c1)C1(CCC(=O)NCCOCCOCCN)c3cc(NC(=O)[C@@H](CCCCNC(=O)OC(C)(C)C)NC(=O)OC(C)(C)C)ccc3C2c2ccc(NC(=O)[C@@H](CCCCNC(=O)OC(C)(C)C)NC(=O)OC(C)(C)C)cc21 [ARK000023]
- Melt. Temp. with cmpd [1]: 60.7 °C
- Shift melt. Temp. [1]: +0.6 °C
